Laboratory results taken from patent publication US20230398130A1, “METHODS AND COMPOSITIONS FOR DIFFERENTIATING STEM CELLS” (Massachusetts Institute of Technology, priority 2020, published 2023).

What was measured:
ISC-enriched organoids [1] = test: Primary screen, 384-well 2.5-D organoid differentiation (ENR+CD, 6 days): basal lysozyme secretion (LYZ.NS); format: cell-based, murine; conditions: for Dose.FC.LYZ.NS / Z.LYZ.NS: primary screen; for Dose.FC.LYZ.NS: ENR+CD 6 days, FC vs plate median; for Z.LYZ.NS: standard z score of FC
From the text: (§1) High-throughput screening.

ISC-enriched organoids [2] = test: Primary screen, 384-well 2.5-D organoid differentiation (ENR+CD, 6 days): carbachol-induced lysozyme secretion (LYZ.S); format: cell-based, murine; conditions: for Dose.FC.LYZ.S: primary screen, ENR+CD 6 days, FC vs plate median
From the text: as §1

ISC-enriched organoids [3] = test: Primary screen, 384-well 2.5-D organoid differentiation (ENR+CD, 6 days, Target Selective Inhibitor Library, vs whole-plate median): ATP (CellTiter-Glo 3D, CTG); conditions: for Dose.FC.CTG / Z.CTG: primary screen; for Dose.FC.CTG: ENR+CD 6 days, FC vs plate median; for Z.CTG: standard z score of FC
[4] = dose 0.08 uM (1st of 4 lines per treatment; dose not printed in this part)
[5] = dose 0.40 uM (2nd of 4 lines per treatment; dose not printed in this part)
[6] = dose 2.00 uM (3rd of 4 lines per treatment; dose not printed in this part)
[7] = dose 10.00 uM (4th of 4 lines per treatment; dose not printed in this part)

**Q.** How did the “SSMD.LYZ.NS_Rep (strictly standardized mean difference)” value (ISC-enriched organoids [1]; [4]) turn out when `COc1cc2c(cc1O)CC[C@@H]1[C@@H]2CC[C@]2(C)[C@@H](O)CC[C@@H]12` [2-Methoxyestradiol (2-MeOE2)] was run?
**A.** Its value is 0.077.

**Q.** And the “SSMD.LYZ.NS_Rep (strictly standardized mean difference)” value (ISC-enriched organoids [1]; [5])?
**A.** The value was 0.227.

**Q.** And the “SSMD.LYZ.NS_Rep (strictly standardized mean difference)” value (ISC-enriched organoids [1]; [6])?
**A.** The value was 0.049.

**Q.** And the “SSMD.LYZ.NS_Rep (strictly standardized mean difference)” value (ISC-enriched organoids [1]; [7])?
**A.** Its value is −0.826.

**Q.** And the Dose.FC.LYZ.NS (ISC-enriched organoids [1]; dose 0.08 uM)?
**A.** The Dose.FC.LYZ.NS was 0.021 log 2 fold change.

**Q.** And the Z.LYZ.NS (ISC-enriched organoids [1]; dose 0.08 uM)?
**A.** Its Z.LYZ.NS is 0.186.

**Q.** What about the Dose.FC.LYZ.NS (ISC-enriched organoids [1]; dose 0.40 uM) of the same molecule?
**A.** The Dose.FC.LYZ.NS was 0.065 log 2 fold change.

**Q.** And the Z.LYZ.NS (ISC-enriched organoids [1]; dose 0.40 uM)?
**A.** The Z.LYZ.NS was 0.566.

**Q.** What about the Dose.FC.LYZ.NS (ISC-enriched organoids [1]; dose 2.00 uM) of the same molecule?
**A.** The Dose.FC.LYZ.NS was 0.005 log 2 fold change.

**Q.** What about the Z.LYZ.NS (ISC-enriched organoids [1]; dose 2.00 uM) of the same molecule?
**A.** The Z.LYZ.NS was 0.041.

**Q.** And the Dose.FC.LYZ.NS (ISC-enriched organoids [1]; dose 10.00 uM)?
**A.** Its Dose.FC.LYZ.NS is −0.139 log 2 fold change.

**Q.** What about the Z.LYZ.NS (ISC-enriched organoids [1]; dose 10.00 uM) of the same molecule?
**A.** Its Z.LYZ.NS is −1.209.

**Q.** And the “SSMD.LYZ.S_Rep (strictly standardized mean difference)” value (ISC-enriched organoids [2]; [4])?
**A.** Its value is 1.015.

**Q.** What about the “Z.LYZ.S (standard z score)” value (ISC-enriched organoids [2]; [4]) of the same molecule?
**A.** The value was 1.224.

**Q.** What about the “SSMD.LYZ.S_Rep (strictly standardized mean difference)” value (ISC-enriched organoids [2]; [5]) of the same molecule?
**A.** Its value is 0.831.

**Q.** What about the “Z.LYZ.S (standard z score)” value (ISC-enriched organoids [2]; [5]) of the same molecule?
**A.** Its value is 1.747.

**Q.** And the “SSMD.LYZ.S_Rep (strictly standardized mean difference)” value (ISC-enriched organoids [2]; [6])?
**A.** Its value is 0.144.

**Q.** And the “Z.LYZ.S (standard z score)” value (ISC-enriched organoids [2]; [6])?
**A.** The value was 0.190.

**Q.** And the “SSMD.LYZ.S_Rep (strictly standardized mean difference)” value (ISC-enriched organoids [2]; [7])?
**A.** The value was −1.135.

**Q.** And the “Z.LYZ.S (standard z score)” value (ISC-enriched organoids [2]; [7])?
**A.** The value was −1.795.

**Q.** What about the Dose.FC.LYZ.S (ISC-enriched organoids [2]; dose 0.08 uM) of the same molecule?
**A.** The Dose.FC.LYZ.S was 0.189 log 2 fold change.

**Q.** And the Dose.FC.LYZ.S (ISC-enriched organoids [2]; dose 0.40 uM)?
**A.** Its Dose.FC.LYZ.S is 0.270 log 2 fold change.

**Q.** And the Dose.FC.LYZ.S (ISC-enriched organoids [2]; dose 2.00 uM)?
**A.** Its Dose.FC.LYZ.S is 0.029 log 2 fold change.

**Q.** And the Dose.FC.LYZ.S (ISC-enriched organoids [2]; dose 10.00 uM)?
**A.** The Dose.FC.LYZ.S was −0.278 log 2 fold change.

**Q.** And the “SSMD.CTG_Rep (strictly standardized mean difference)” value (ISC-enriched organoids [3]; [4])?
**A.** The value was 0.407.

**Q.** What about the “SSMD.CTG_Rep (strictly standardized mean difference)” value (ISC-enriched organoids [3]; [5]) of the same molecule?
**A.** The value was 0.930.

**Q.** What about the “SSMD.CTG_Rep (strictly standardized mean difference)” value (ISC-enriched organoids [3]; [6]) of the same molecule?
**A.** The value was 0.461.

**Q.** What about the “SSMD.CTG_Rep (strictly standardized mean difference)” value (ISC-enriched organoids [3]; [7]) of the same molecule?
**A.** Its value is −0.878.

**Q.** And the Dose.FC.CTG (ISC-enriched organoids [3]; dose 0.08 uM)?
**A.** Its Dose.FC.CTG is 0.299 log 2 fold change.

**Q.** What about the Z.CTG (ISC-enriched organoids [3]; dose 0.08 uM) of the same molecule?
**A.** Its Z.CTG is 0.714.

**Q.** What about the Dose.FC.CTG (ISC-enriched organoids [3]; dose 0.40 uM) of the same molecule?
**A.** Its Dose.FC.CTG is 0.401 log 2 fold change.

**Q.** And the Z.CTG (ISC-enriched organoids [3]; dose 0.40 uM)?
**A.** The Z.CTG was 0.957.

**Q.** What about the Dose.FC.CTG (ISC-enriched organoids [3]; dose 2.00 uM) of the same molecule?
**A.** The Dose.FC.CTG was 0.227 log 2 fold change.

**Q.** And the Z.CTG (ISC-enriched organoids [3]; dose 2.00 uM)?
**A.** Its Z.CTG is 0.543.

**Q.** And the Dose.FC.CTG (ISC-enriched organoids [3]; dose 10.00 uM)?
**A.** The Dose.FC.CTG was −0.672 log 2 fold change.

**Q.** What about the Z.CTG (ISC-enriched organoids [3]; dose 10.00 uM) of the same molecule?
**A.** The Z.CTG was −1.606.

**Q.** For `CC(C)N(CC[C@H](c1ccccc1)c1cc(CO)ccc1O)C(C)C` [4CE°8C], which “SSMD.LYZ.NS_Rep (strictly standardized mean difference)” value (ISC-enriched organoids [1]; [4]) is on record?
**A.** Its value is 0.497.

**Q.** And the “SSMD.LYZ.NS_Rep (strictly standardized mean difference)” value (ISC-enriched organoids [1]; [5])?
**A.** Its value is 0.226.

**Q.** And the “SSMD.LYZ.NS_Rep (strictly standardized mean difference)” value (ISC-enriched organoids [1]; [6])?
**A.** Its value is 0.128.

**Q.** And the “SSMD.LYZ.NS_Rep (strictly standardized mean difference)” value (ISC-enriched organoids [1]; [7])?
**A.** The value was −0.861.

**Q.** What about the Dose.FC.LYZ.NS (ISC-enriched organoids [1]; dose 0.08 uM) of the same molecule?
**A.** The Dose.FC.LYZ.NS was 0.069 log 2 fold change.

**Q.** What about the Z.LYZ.NS (ISC-enriched organoids [1]; dose 0.08 uM) of the same molecule?
**A.** The Z.LYZ.NS was 0.601.

**Q.** And the Dose.FC.LYZ.NS (ISC-enriched organoids [1]; dose 0.40 uM)?
**A.** Its Dose.FC.LYZ.NS is 0.047 log 2 fold change.

**Q.** And the Z.LYZ.NS (ISC-enriched organoids [1]; dose 0.40 uM)?
**A.** The Z.LYZ.NS was 0.413.

**Q.** And the Dose.FC.LYZ.NS (ISC-enriched organoids [1]; dose 2.00 uM)?
**A.** The Dose.FC.LYZ.NS was 0.016 log 2 fold change.

**Q.** And the Z.LYZ.NS (ISC-enriched organoids [1]; dose 2.00 uM)?
**A.** The Z.LYZ.NS was 0.138.

**Q.** What about the Dose.FC.LYZ.NS (ISC-enriched organoids [1]; dose 10.00 uM) of the same molecule?
**A.** The Dose.FC.LYZ.NS was −0.095 log 2 fold change.

**Q.** And the Z.LYZ.NS (ISC-enriched organoids [1]; dose 10.00 uM)?
**A.** Its Z.LYZ.NS is −0.827.

**Q.** And the “SSMD.LYZ.S_Rep (strictly standardized mean difference)” value (ISC-enriched organoids [2]; [4])?
**A.** Its value is 0.194.

**Q.** What about the “Z.LYZ.S (standard z score)” value (ISC-enriched organoids [2]; [4]) of the same molecule?
**A.** Its value is 0.205.

**Q.** And the “SSMD.LYZ.S_Rep (strictly standardized mean difference)” value (ISC-enriched organoids [2]; [5])?
**A.** Its value is 0.053.

**Q.** What about the “Z.LYZ.S (standard z score)” value (ISC-enriched organoids [2]; [5]) of the same molecule?
**A.** Its value is 0.073.

**Q.** And the “SSMD.LYZ.S_Rep (strictly standardized mean difference)” value (ISC-enriched organoids [2]; [6])?
**A.** The value was −0.217.

**Q.** And the “Z.LYZ.S (standard z score)” value (ISC-enriched organoids [2]; [6])?
**A.** Its value is −0.358.

**Q.** What about the “SSMD.LYZ.S_Rep (strictly standardized mean difference)” value (ISC-enriched organoids [2]; [7]) of the same molecule?
**A.** The value was −0.707.

**Q.** And the “Z.LYZ.S (standard z score)” value (ISC-enriched organoids [2]; [7])?
**A.** The value was −0.836.

**Q.** What about the Dose.FC.LYZ.S (ISC-enriched organoids [2]; dose 0.08 uM) of the same molecule?
**A.** Its Dose.FC.LYZ.S is 0.032 log 2 fold change.

**Q.** What about the Dose.FC.LYZ.S (ISC-enriched organoids [2]; dose 0.40 uM) of the same molecule?
**A.** Its Dose.FC.LYZ.S is 0.011 log 2 fold change.

**Q.** And the Dose.FC.LYZ.S (ISC-enriched organoids [2]; dose 2.00 uM)?
**A.** Its Dose.FC.LYZ.S is −0.055 log 2 fold change.

**Q.** And the Dose.FC.LYZ.S (ISC-enriched organoids [2]; dose 10.00 uM)?
**A.** The Dose.FC.LYZ.S was −0.129 log 2 fold change.

**Q.** What about the “SSMD.CTG_Rep (strictly standardized mean difference)” value (ISC-enriched organoids [3]; [4]) of the same molecule?
**A.** Its value is −0.402.

**Q.** What about the “SSMD.CTG_Rep (strictly standardized mean difference)” value (ISC-enriched organoids [3]; [5]) of the same molecule?
**A.** The value was 0.023.

**Q.** What about the “SSMD.CTG_Rep (strictly standardized mean difference)” value (ISC-enriched organoids [3]; [6]) of the same molecule?
**A.** Its value is −0.340.

**Q.** What about the “SSMD.CTG_Rep (strictly standardized mean difference)” value (ISC-enriched organoids [3]; [7]) of the same molecule?
**A.** Its value is −0.109.

**Q.** What about the Dose.FC.CTG (ISC-enriched organoids [3]; dose 0.08 uM) of the same molecule?
**A.** Its Dose.FC.CTG is −0.111 log 2 fold change.

**Q.** What about the Z.CTG (ISC-enriched organoids [3]; dose 0.08 uM) of the same molecule?
**A.** Its Z.CTG is −0.265.

**Q.** And the Dose.FC.CTG (ISC-enriched organoids [3]; dose 0.40 uM)?
**A.** The Dose.FC.CTG was 0.007 log 2 fold change.

**Q.** What about the Z.CTG (ISC-enriched organoids [3]; dose 0.40 uM) of the same molecule?
**A.** Its Z.CTG is 0.018.

**Q.** What about the Dose.FC.CTG (ISC-enriched organoids [3]; dose 2.00 uM) of the same molecule?
**A.** The Dose.FC.CTG was −0.162 log 2 fold change.

**Q.** And the Z.CTG (ISC-enriched organoids [3]; dose 2.00 uM)?
**A.** Its Z.CTG is −0.387.

**Q.** And the Dose.FC.CTG (ISC-enriched organoids [3]; dose 10.00 uM)?
**A.** The Dose.FC.CTG was −0.039 log 2 fold change.

**Q.** And the Z.CTG (ISC-enriched organoids [3]; dose 10.00 uM)?
**A.** The Z.CTG was −0.094.
